3 compounds from article PMC10460844, “Real‐Time Monitoring of Multitarget Antimicrobial Mechanisms of Peptoids Using Label‐Free Imaging with Optical Diffraction Tomography” (Advanced Science, 2023) can be followed below.

The test system of one data set is S. aureus MRSA C623. It is filed as cell-based.
Another data set deals with K. pneumonia ESBL 61962. It is filed as cell-based.
Data set [1] can be described thus: Protein and DNA aggregation assay (thioflavin T). It is filed as biochemical. As to conditions: 29 25 µM, protein 500 µg mL^−1, gDNA 50 ng mL^−1, Th T 25 µM, 37 °C 1 h, ex 450 / em 485 nm. How it is done: bacteria were pelleted at 4,000 rpm for 10 minutes at 8 °C. The supernatant was removed and the pellet was suspended in 2 mL of PBS buffer. This suspension was transferred to a 15 mL conical tube and cooled on ice. The culture was sonicated for 5 sec and cooled again for 55 sec. This cycle was repeated 15 times. The lysate was centrifuged at 4,000 rpm for 20 minutes at 8 °C. The supernatant was transferred into a fresh 2 mL Eppendorf tube and stored at -80 °C. Protein quantification was performed using TaKaRa Bradford Protein Assay Kit according to the manufacturer’s instructions.
DNA extraction and quantification
DNA extraction was performed using TaKaRa MiniBEST Bacteria Genomic DNA Extraction Kit Ver. 3.0 according to the manufacturer’s instructions.
Protein and DNA aggregation assay
The flocculation of the proteins and DNA caused by peptoids was confirmed by the change in the fluorescent intensity of thioflavin T (Th T) that detects aggregated proteins and double stranded DNA. The appropriate combination of 500 μg/mL of protein solution, 50 ng/mL of genomic DNA, 25 μM of Th T, and 25 μM of peptoid 29 were added into a black 96-well plate in triplicate and incubated at 37 °C for an hour. After incubation, the fluorescence was measured using a microplate reader (excitation wavelength = 450 nm, emission wavelength = […]
[1] […]

The nature of data set [2]: S9 fraction stability assay. It is filed as in vitro ADME. As to conditions: NADPH, 100 mM Tris-HCl pH 7.4, […] MgCl2, 37 °C, 24 h incubation, HPLC or LC-MS, compared to pexiganan. Here is the method:
200 μL NPN dye was added to wells of a 96 well plate to produce a final concentration of 10 μM, and the background fluorescence was recorded (λex = 350 nm, λem = 420 nm). Aliquots of peptoids were added to the well, and fluorescence was recorded as a function of time until there was no further increase in fluorescence. Increases of the permeability of the outer membrane after the addition of peptoids was reflected by increased fluorescence values as a result of NPN incorporation into the membrane.
The permeability of the inner membrane was determined using E. coli ML-35 cells […]
The intact bacterial inner membrane is non-permeable to o-nitrophenyl-β-D-galactopyranoside (OPNG), a chromogenic substrate of the β-galactosidase.
Following damage to the inner membrane, OPNG enters the cells and is metabolized by β-galactosidase creating a chromogenic […]. […] The hydrolysis of ONPG and generation of o-nitrophenol over time were monitored as absorbance change at 405 nm following the addition of peptoids.
The resistance of peptoids against metabolic enzyme degradation was measured by an S9 fraction assay. […] Quenched samples were centrifuged for 5 minutes at 1200 rpm and analyzed by analytical HPLC or LC-MS.
Protein extraction and quantification using Bradford assay […]

Square brackets hold non-standard residues; d marks the D form. Peptide text beside a SMILES is read from it. Gly(N(CH2)2(3-indolyl)) = O=C(O)CNCCc1c[nH]c2ccccc12; Nspe = C[C@H](NCC(=O)O)c1ccccc1; Nlys = NCCCCNCC(=O)O

On to `C[C@@H](c1ccccc1)N(CC(=O)N(CCCCN)CC(=O)N(CCc1c[nH]c2ccccc12)CC(=O)N(CCc1c[nH]c2ccccc12)CC(N)=O)C(=O)CN(CCCCN)C(=O)CN(CCCCN)C(=O)CN(C(=O)CN(C(=O)CN(CCCCN)C(=O)CN(C(=O)CN(C(=O)CNCCCCN)[C@@H](C)c1ccccc1)[C@@H](C)c1ccccc1)[C@@H](C)c1ccccc1)[C@@H](C)c1ccccc1` [peptoid 29] (H-[Nlys][Nspe][Nspe][Nlys][Nspe][Nspe][Nlys][Nlys][Nspe][Nlys][Gly(N(CH2)2(3-indolyl))][Gly(N(CH2)2(3-indolyl))]-NH2), for which the “MIC S. aureus MRSA C623” value against S. aureus MRSA C623 was 3.1 to 6.3 µM. In the data set with K. pneumonia ESBL 61962, the “MIC K. pneumonia ESBL 61962” value is above 25 µM. Also, the “Th T fluorescence of protein and protein/gDNA samples” value in data set [1] was “significant increases in fluorescent emission”. The “stability in human liver S9 fraction” value in data set [2] is reported as “superior stability”.

With `C[C@@H](c1ccccc1)N(CC(=O)N(CCCCN)CC(=O)N(CC(=O)N(CC(=O)N(CCCCN)CC(=O)N(CC(=O)N(CC(=O)N(CCCCN)CC(=O)N(CCc1c[nH]c2ccccc12)CC(=O)N(CCc1c[nH]c2ccccc12)CC(N)=O)[C@@H](C)c1ccccc1)[C@@H](C)c1ccccc1)[C@@H](C)c1ccccc1)[C@@H](C)c1ccccc1)C(=O)CN(C(=O)CNCCCCN)[C@@H](C)c1ccccc1` [peptoid 11] (H-[Nlys][Nspe][Nspe][Nlys][Nspe][Nspe][Nlys][Nspe][Nspe][Nlys][Gly(N(CH2)2(3-indolyl))][Gly(N(CH2)2(3-indolyl))]-NH2), the “MIC S. aureus MRSA C623” value with S. aureus MRSA C623 lay in the range of 3.1 to 6.3 µM. The “MIC K. pneumonia ESBL 61962” value in the data set on K. pneumonia ESBL 61962 is 6.3 to 12.5 µM.

In the case of `C[C@@H](c1ccccc1)N(CC(N)=O)C(=O)CN(C(=O)CN(CCCCN)C(=O)CN(C(=O)CN(C(=O)CN(CCCCN)C(=O)CN(C(=O)CN(C(=O)CN(CCCCN)C(=O)CN(C(=O)CN(C(=O)CNCCCCN)[C@@H](C)c1ccccc1)[C@@H](C)c1ccccc1)[C@@H](C)c1ccccc1)[C@@H](C)c1ccccc1)[C@@H](C)c1ccccc1)[C@@H](C)c1ccccc1)[C@@H](C)c1ccccc1` [peptoid 1, reference compound] (H-[Nlys][Nspe][Nspe][Nlys][Nspe][Nspe][Nlys][Nspe][Nspe][Nlys][Nspe][Nspe]-NH2), in data set [2], the “stability in human liver S9 fraction” value is on record as “superior stability”.
